{"source": "BindingDB's records for doi:10.1021/bi100299r", "about": "(Riken Systems and Structural Biology Center, 2010)", "molecular_target": "Lysine-specific histone demethylase 1A (Homo sapiens, UniProt O60341)", "assay": "LSD1 Inhibition Assay", "from_the_text": "The kinetic inhibition parameters of LSD1 demethylase inhibition were obtained using the peroxidase-coupled reaction method."}
{"smiles": "CC(C)COc1ccc(Cl)cc1C1CC1N", "note": "(centres undefined)", "values": [{"measurement": "IC50", "value": 14.9, "unit": "µM"}]}
{"smiles": "NC1CC1c1cc(F)ccc1-c1ccccc1", "note": "(centres undefined) [S1310]", "values": [{"measurement": "IC50", "value": "> 50", "unit": "µM"}]}
{"smiles": "NC1CC1c1cc(Cl)ccc1OCc1ccccc1", "note": "(centres undefined) [S1401]", "values": [{"measurement": "IC50", "value": "> 30", "unit": "µM"}]}
{"smiles": "CC(C)COc1c(Cl)cc(Cl)cc1C1CC1N", "note": "(centres undefined) [S1502]", "values": [{"measurement": "IC50", "value": "> 50", "unit": "µM"}]}
{"smiles": "NC1CC1c1ccc(OCc2ccccc2)cc1OCc1ccccc1", "note": "(centres undefined) [S1601]", "values": [{"measurement": "IC50", "value": "> 30", "unit": "µM"}]}
{"smiles": "CC(C)COc1ccc(C2CC2N)c(OCC(C)C)c1", "note": "(centres undefined) [S1602]", "values": [{"measurement": "IC50", "value": "> 30", "unit": "µM"}]}
{"smiles": "NC1CC1c1ccc(OCC2CCCCC2)cc1OCC1CCCCC1", "note": "(centres undefined) [S1603]", "values": [{"measurement": "IC50", "value": "> 30", "unit": "µM"}]}
{"smiles": "NCc1cccc(COc2c(F)cc(F)cc2C2CC2N)c1", "note": "(centres undefined) [S2107]", "values": [{"measurement": "IC50", "value": 4.1, "unit": "µM"}]}
{"smiles": "COc1cccc(COc2c(F)cc(F)cc2C2CC2N)c1", "note": "(centres undefined) [S2206]", "values": [{"measurement": "IC50", "value": "> 30", "unit": "µM"}]}
